US7579325B2, “Drugs containing reduced of vitamin B2” (Eisai R & D Management Co., Ltd., priority 2001, dated 2009)

Key:
[1] = Effect on endotoxin shock model (LPS, mouse survival); type: in vivo, mice; conditions: for survival number / survival rate %: male ICR mice, 10 per group, 4 days after administration
Description: (§1) Riboflavin sodium phosphate (FMN-Na, JP grade) and leucoflavin sodium phosphate (FMN-H2) prepared in Example 1 were used.
Male mice (Slc: ICR, 6-week old) (10 mice per each test group) was administered intraperitoneally with lipopolysaccharide from E. coli serum type 0111-B4 (Sigma; abbreviated as “LPS” hereinbelow) at a dose of 15 mg/kg.
Six hours after the administration, each of riboflavin sodium phosphate (dosage: […] in dosage volumes of 0.25, 0.5 and 1 ml, respectively) and leucoflavin phosphate (dosage: 2.5, 5 and 10 mg/kg in dosage volumes of 0.25, 0.5 and 1 ml, respectively) which had been dissolved in physiological saline and sterilized by filtration was administered intraperitoneally. The survival rate was determined 4 days after the administration. In the control group, 1.0 ml of physiological saline was administered intraperitoneally instead of the drugs. The determination of the medicinal efficacy was conducted by χ^2 test.

[2] = tested on: E. coli E01292 strain; assay: Effect on E. coli-infected model (mouse survival); type: in vivo; conditions: for survival number / survival rate %: male ICR mice, 10 per group, 4 days after inoculation
Description: Twelve mg of riboflavin sodium phosphate (FMN-Na, JP grade) was dissolved in 40 ml of physiological saline and then added and mixed with 480 mg of sodium hydrosulfite to produce leucoflavin phosphate (FMN-H2).
Male mice (Slc: ICR, 8-week old) (10 mice per each test group) was administered intraperitoneally with each of riboflavin sodium phosphate (dosage: 12.5, 25, 50 and 100 mg/kg in dosage volumes of 0.125, 0.25, 0.5 and 1 ml, respectively) and leucoflavin phosphate (dosage: 1.25, 2.5, 5 and 10 mg/kg in dosage volumes of 0.125, 0.25, 0.5 and 1 ml, respectively) which had been dissolved in physiological saline and sterilized by filtration. Twenty-four hours after the administration, E. coli E01292 strain was inoculated subcutaneously at a dose of 5.3×10^7 CFU/mouse (suspended in 0.2 ml of physiological saline), and the survival rate was determined 4 days after the inoculation. In the control group, 1.0 ml of physiological saline was administered intraperitoneally instead of the drugs. The determination of the medicinal efficacy was conducted by χ^2 test.

[3] = tested on: Staphylococcus aureus BO-72 strain; assay: Effect on Staphylococcus aureus-infected model (mouse survival); type: in vivo; conditions: for survival number / survival rate %: male ICR mice, 10 per group, 10 days after inoculation
Description: as §1
Male mice (Slc: ICR, 8-week old) (10 mice per each test group) was administered intraperitoneally with each of riboflavin sodium phosphate (dosage: 25, 50 and 100 mg/kg in dosage volumes of 0.25, 0.5 and 1 ml, respectively) and leucoflavin phosphate (dosage: 2.5, 5 and 10 mg/kg in dosage volumes of 0.25, 0.5 and 1 ml, respectively) which had been dissolved in physiological saline and sterilized by filtration. Twenty-four hours after the administration, Staphylococcus aureus BO-72 strain was administered intravenously at a dose of 8.7×10^7 CFU/mouse (suspended in 0.2 ml of physiological saline), and the survival rate was determined 10 days after the inoculation. In the control group, 1.0 ml of physiological saline was administered intraperitoneally instead of the drugs. The determination of the medicinal efficacy was conducted by χ^2 test.

[4] = 5 mg/kg i.p. 6 h after LPS 15 mg/kg i.p.
[5] = 10 mg/kg i.p. 6 h after LPS 15 mg/kg i.p.
[6] = 20 mg/kg i.p. 6 h after LPS 15 mg/kg i.p.
[7] = 12.5 mg/kg i.p. 24 h before s.c. E. coli inoculation
[8] = 25 mg/kg i.p. 24 h before s.c. E. coli inoculation
[9] = 50 mg/kg i.p. 24 h before s.c. E. coli inoculation
[10] = 100 mg/kg i.p. 24 h before s.c. E. coli inoculation
[11] = 25 mg/kg i.p. 24 h before i.v. S. aureus
[12] = 50 mg/kg i.p. 24 h before i.v. S. aureus
[13] = 100 mg/kg i.p. 24 h before i.v. S. aureus
[14] = 2.5 mg/kg i.p. 6 h after LPS 15 mg/kg i.p.
[15] = 1.25 mg/kg i.p. 24 h before s.c. E. coli inoculation
[16] = 2.5 mg/kg i.p. 24 h before s.c. E. coli inoculation
[17] = 5 mg/kg i.p. 24 h before s.c. E. coli inoculation
[18] = 10 mg/kg i.p. 24 h before s.c. E. coli inoculation
[19] = 2.5 mg/kg i.p. 24 h before i.v. S. aureus
[20] = 5 mg/kg i.p. 24 h before i.v. S. aureus
[21] = 10 mg/kg i.p. 24 h before i.v. S. aureus

Cc1cc2nc3c(=O)[nH]c(=O)nc-3n(C[C@H](O)[C@H](O)[C@H](O)COP(=O)(O)O)c2cc1C [VB2Na, riboflavin sodium phosphate, reference compound]
survival number [1, 4]: 3
survival rate % [1, 4]: 30%
survival number [1, 5]: 4
survival rate % [1, 5]: 40%
survival number [1, 6]: 7
survival rate % [1, 6]: 70%
survival number [2, 7]: 1
survival rate % [2, 7]: 10%
survival number [2, 8]: 3
survival rate % [2, 8]: 30%
survival number [2, 9]: 5
survival rate % [2, 9]: 50%
survival number [2, 10]: 9
survival rate % [2, 10]: 90%
survival number [3, 11]: 2
survival rate % [3, 11]: 20%
survival number [3, 12]: 4
survival rate % [3, 12]: 40%
survival number [3, 13]: 7
survival rate % [3, 13]: 70%

Cc1cc2c(cc1C)N(C[C@H](O)[C@H](O)[C@H](O)COP(=O)(O)O)c1[nH]c(=O)[nH]c(=O)c1N2 [FMN-H2, leucoflavin phosphate]
survival number [1, 14]: 2
survival rate % [1, 14]: 20%
survival number [1, 4]: 6
survival rate % [1, 4]: 60%
survival number [1, 5]: 8
survival rate % [1, 5]: 80%
life-saving effect on endotoxin shock compared with riboflavin sodium phosphate ([1]; mice, from Table 3): about 2 fold
survival number [2, 15]: 0
survival rate % [2, 15]: 10%
survival number [2, 16]: 4
survival rate % [2, 16]: 40%
survival number [2, 17]: 6
survival rate % [2, 17]: 60%
survival number [2, 18]: 9
survival rate % [2, 18]: 90%
infection-protective effect against E. coli compared with riboflavin sodium phosphate ([2]; mice, from Table 1): about 10 fold
survival number [3, 19]: 3
survival rate % [3, 19]: 30%
survival number [3, 20]: 6
survival rate % [3, 20]: 60%
survival number [3, 21]: 8
survival rate % [3, 21]: 80%
infection-protective effect against Staphylococcus aureus compared with riboflavin sodium phosphate ([3]; mice, from Table 2): about 10 fold
